# Assay results reported in PMC8085067, “The dimer-monomer equilibrium of SARS-CoV-2 main protease is affected by small molecule inhibitors” (Scientific Reports, 2021).
# Entries after “also recorded” stand apart in the source; their conditions may differ.
# Target: SARS-CoV-2 M^pro (Severe acute respiratory syndrome coronavirus 2, UniProt P0DTD1)
# Assay: M^pro activity assay and inhibition (fluorogenic substrate)
# Type: biochemical
# Details: for inhibition of M^pro catalytic activity (in words) / slope m of the fluorescence inhibition curve: inhibitor 30 μM; for inhibition of M^pro catalytic activity (in words): fluorescence assay; for slope m of the fluorescence inhibition curve: ≈0.2 μM M^pro, 40 μM substrate, 30 °C, 20 min preincubation, linear fit up to 30 min
SMILES,inhibition of M^pro catalytic activity (in words),slope m of the fluorescence inhibition curve,Hill slope n (Hill equation fit of percent inhibition),IC50 (Hill equation fit of percent inhibition vs inhibitor concentration)
OCCN(CCOc1c(F)c(F)c(-c2nc(-c3ccncc3)no2)c(F)c1F)CCOc1c(F)c(F)c(-c2nc(-c3ccncc3)no2)c(F)c1F [Inhibitor 3],week,23±3 RFU/min,,
"Fc1c(F)c(N2CCOCCOCCOCCOCCOCC2)c(F)c(F)c1-c1nc(-c2ccccc2)no1 [Inhibitor 4, 16-(2,3,5,6-tetrafluoro-4-(3-phenyl-1,2,4-oxadiazol-5-yl)phenyl)-1,4,7,10,13-pentaoxa-16-azacyclooctadecane]",irreversible inactivation of the enzyme; also recorded: most effective among the seven inhibitors,0±6 RFU/min and ≈ 0 RFU/min,,
"CCNC(=O)c1noc(-c2c(F)c(F)c(NCCN(CCNc3c(F)c(F)c(-c4nc(C(=O)NCC)no4)c(F)c3F)CCNc3c(F)c(F)c(-c4nc(C(=O)NCC)no4)c(F)c3F)c(F)c2F)n1 [Inhibitor 7, 5,5’,5”-(((nitrilotris(ethane-2,1-diyl))tris(azanediyl))tris(2,3,5,6-tetrafluorobenzene-4,1-diyl))tris(N-ethyl-1,2,4-oxadiazole-3-carboxamide)]",irreversible inactivation of the enzyme; also recorded: promising inhibition effect,1±3 RFU/min and ≈ 1 RFU/min,3±1,15 ± 2 µM
